Source: patent US20240084044A1, “Heteromultivalent Nucleic Acid Scaffolds and Uses Thereof” (George Mason University, priority 2022, published 2024)
Bridges are numbered along the chain shown (N, C = ends). Roman numbers before positions name the chains, in order.

Tests used:
[1] = tested on: IL-33 signaling (HEK-Blue IL-33 cells); test: SEAP reporter assay in HEK-Blue IL-33 reporter cells; assay type: cell-based, human
Procedure: HEK-Blue® IL-33 (Invivogen, Cat. #hkb-hil33) and IL-1β cells (Invivogen, Cat #hkb-il1bv2) were cultured in T25 and T75 flasks (NUNC, Cat. #156367 and #156499) in DMEM media supplemented with L-glutamine (Gibco, Cat. #11995-065), 10% Fetal Bovine Serum (Gibco, Cat. #10437-028), 1% Penicillin/Streptomycin (Gibco, Cat. #15140-148), and 0.5% Normacin® (Invivogen, Cat. #ant-hr-1). IL-33 cell growth media also included 1 mL of 250× Selectin Cocktail® (Invivogen, Cat. #hb-sel) and IL-1β cell growth media included 100 μg/mL of Zeocin® (Cat #ant-zn-05). Cells were maintained at 37° C. with humidity and 5% CO2 and were passaged upon reaching 80-85% confluency. […]
IL-33 and IL-1β signaling activation was assessed based on the expression of a SEAP reporter gene. […] Pellet was resuspended in 5 mL test medium (DMEM, 10% heat inactivated FBS, and 1% P/S), cells counted, and concentration adjusted to 2.8×10^5 cell/mL. […] After incubation, SEAP reporter gene phosphatase activity was measured by adding 20 μL of supernatant from each well to 180 μL of QuantiBLUE substrate (Invivogen, Cat #rep-qbs) and incubated an additional 30 min at 37° C. Colorimetric absorbance was measured at 620 nm. […]
MSTOP bioactivity was determined in a reporter gene cell model. […] After six hours, IL-33 signaling was quantified by absorbance at 620 nm, based on the metabolism of QUANTI-Blue substrate by expressed SEAP secreted into the media.

[2] = tested on: IL-1β signaling (HEK-Blue IL-1β cells); test: SEAP reporter assay in HEK-Blue IL-1β reporter cells; assay type: cell-based, human; details: 10 μM; 250 pg/mL IL-1β
Procedure: HEK-Blue® IL-33 (Invivogen, Cat. #hkb-hil33) and IL-1β cells (Invivogen, Cat #hkb-il1bv2) were cultured in T25 and T75 flasks (NUNC, Cat. #156367 and #156499) in DMEM media supplemented with L-glutamine (Gibco, Cat. #11995-065), 10% Fetal Bovine Serum (Gibco, Cat. #10437-028), 1% Penicillin/Streptomycin (Gibco, Cat. #15140-148), and 0.5% Normacin® (Invivogen, Cat. #ant-hr-1). IL-33 cell growth media also included 1 mL of 250× Selectin Cocktail® (Invivogen, Cat. #hb-sel) and IL-1β cell growth media included 100 μg/mL of Zeocin® (Cat #ant-zn-05). Cells were maintained at 37° C. with humidity and 5% CO2 and were passaged upon reaching 80-85% confluency. To ensure assay consistency, passage number was kept low (<20) to maintain stable ST2 and IL-1RI expression.
IL-33 and IL-1β signaling activation was assessed based on the expression of a SEAP reporter gene. Flasks were washed 2× with prewarmed, sterile PBS (Gibco), scraped in fresh media, and spun down for 5 m at 250×g. Pellet was resuspended in 5 mL test medium (DMEM, 10% heat inactivated FBS, and 1% P/S), cells counted, and concentration adjusted to 2.8×10^5 cell/mL. […] After incubation, SEAP reporter gene phosphatase activity was measured by adding 20 μL of supernatant from each well to 180 μL of QuantiBLUE substrate (Invivogen, Cat #rep-qbs) and incubated an additional 30 min at 37° C. Colorimetric absorbance was measured at 620 nm. […]

## MSTOP: 3WJ DNA scaffold whose three DBCO staple strands carry cyclized azidolysine IL-1RAcP hotspot peptides; decoy for IL-33/ST2 (peptide 1 Ac-CKEYGIQRITC-NH2; peptide 2 Ac-AKVGSPKNAVPPC-NH2; peptide 3 Ac-CKGEVAKAAKVKC-NH2; disulfide I:1-I:11, III:1-III:13; thioether II:1-II:13; not fully specified (some residues); also: three peptides held on a 3-way junction DNA scaffold via DBCO staple strands)
[1]; 1 μM, 100 pg/mL IL-33, 6 h
  reduction in IL-33 induced SEAP expression: ~40%
[1]; MSTOP dose curve 10 μM to 10 nM
  inhibition of IL-33 cells compared to IL-1β cells: Significant inhibition
[2]
  reduction in SEAP expression: Negligible reduction
